Columns and labels:
[1] = system: contraction of rat blood vessel (norepinephrine); test: inhibition of norepinephrine-induced contraction of rat blood vessel; type: in vivo; conditions: norepinephrine 10^-6 g/kg; dose 1 mg/kg i.v.; anesthetized normal rats; Means ± S.D.; n=8
Description: (§1) The effect on the contraction of rat blood vessel Norepinephrine and octopamine were injected into various anesthetized normal rats respectively, so that a contraction of rat blood vessels was induced and the blood pressure increased. […] Therefore, the tannins are potent in inhibiting the contraction of blood vessels and the effect of the tannins on the wall of blood vessel is also significant.

normal rats (WKY) = test: depression of tail arterial blood pressure in normal rats (WKY); type: in vivo, rat; conditions: injected, Means±S.D., N=11
Description: (§2) The effect on the blood pressure of spontaneously hypertensive rats (SHR) and normal rats (WKY)
(§3) The tannins obtained in the example 1 were injected into various rats respectively at different concentrations.
(§4) The data (Means±S.D.) in table 1 represents the value of the depression range of blood pressure (N=11). In comparison to conventional antihypertensive drugs, guanethidine can depress the blood pressure of hypertensive rats in a range of 28.8±7.95 mmHg (N=8) with a injection concentration of 1 mg/kg, prazosin in a range of 31.4±7.17 mmHg (N=8) and nifedipine in a range of 10.8±2.78 mmHg (N=8) at the same concentration.

rats = test: lethal dosage (LD50) in rats; type: in vivo
Description: (§5) Furthermore, the lethal dosages (LD50) for the rats were determined. The LD50 of corilagin and geraniin were greater than 100 mg/kg, and the LD50 of 6-O-galloyl-D-glucose and 1,2,3,4,6-penta-O-galloyl-D-glucose were greater than 50 mg/kg. Therefore, these four tannins can be used as a safe and effective […] drugs.

norepinephrine = test: concentration of norepinephrine in blood (plasma NE); type: in vivo, rat; conditions: injected to the veins, after ten minutes, Means ± S.D, N=6, Control 3.55 ± 0.31
Description: The effect on the concentration of norepinephrine in blood Four tannins were injected to the veins of various rats respectively at different concentrations. After ten minutes, the blood of the rats were sampled to determine the concentration of norepinephrine in their blood. Obviously, these compounds can reduce the concentration of norepinephrine,i.e., they can inhibit the secretion of norepinephrine and relax the adrenergic tension, and therefore the blood pressure can be reduced.

[2] = system: spontaneously hypertensive rats (SHR); test: depression of tail arterial blood pressure in spontaneously hypertensive rats (SHR); type: in vivo, rat; conditions: for Depression of blood pressure, SHR: injected, Means±S.D., N=11; for depress the blood pressure of hypertensive rats (conventional antihypertensive drugs): 1 mg/kg injection, N=8
Description: as §2, §3, §4

[3] = system: contraction of rat blood vessel (octopamine); test: inhibition of octopamine-induced contraction of rat blood vessel; type: in vivo; conditions: octopamine 8 × 10^-4 g/kg; dose 1 mg/kg i.v.; anesthetized normal rats; Means ± S.D.; n=8
Description: as §1

[4] = lethal dosage (LD50) in rats; type: in vivo; conditions: rat, in vivo
Description: as §5

Compound: O=C1O[C@H]2[C@@H]3OC(=O)c4cc(O)c(O)c(O)c4-c4c(cc(O)c(O)c4O)C(=O)OC[C@H]2O[C@@H](OC(=O)c2cc(O)c(O)c(O)c2)[C@@H]3OC(=O)c2cc(O)c(O)c3c2[C@@H]2C1=CC(=O)[C@](O)(O3)C2(O)O [Geraniin, geraniin]
- Inhibition (%), Norepinephrine [1]: 87.1 ± 6.5%
- Depression of blood pressure, WKY (normal rats (WKY); 1 mg/kg): 3.57 ± 4.72 mmHg
- Depression of blood pressure, WKY (normal rats (WKY); 5 mg/kg): 13.28 ± 6.67 mmHg
- LD50 (rats): greater than 100 mg/kg
- Plasma NE (norepinephrine; 0.5 mg/kg): 2.66 ± 0.19 pmol/mL
- Plasma NE (norepinephrine; 1 mg/kg): 2.17 ± 0.09 pmol/mL
- Depression of blood pressure, SHR ([2]; 1 mg/kg): 19.28 ± 5.49 mmHg
- Depression of blood pressure, SHR ([2]; 5 mg/kg): 25.85 ± 4.18 mmHg
- Inhibition (%), Octopamine [3]: 74.8 ± 13.5%

Compound: O=C(OC[C@H]1OC(O)[C@H](O)[C@@H](O)[C@@H]1O)c1cc(O)c(O)c(O)c1 (stereo partly drawn) [6-O-galloyl-D-glucose]
- Inhibition (%), Norepinephrine [1]: 64.1 ± 15.1%
- Depression of blood pressure, WKY (normal rats (WKY); 1 mg/kg): 5.81 ± 5.07 mmHg
- Depression of blood pressure, WKY (normal rats (WKY); 5 mg/kg): 5.21 ± 3.48 mmHg
- LD50 [4]: > 50 mg/kg
- Plasma NE (norepinephrine; 1 mg/kg): 2.14 ± 0.09 pmol/mL
- Plasma NE (norepinephrine; 5 mg/kg): 1.76 ± 0.22 pmol/mL
- Depression of blood pressure, SHR ([2]; 1 mg/kg): 17.28 ± 7.08 mmHg
- Depression of blood pressure, SHR ([2]; 5 mg/kg): 24.12 ± 9.93 mmHg
- Inhibition (%), Octopamine [3]: 65.3 ± 11.3%

Compound: N=C(N)NCCN1CCCCCCC1 [guanethidine, reference compound]
- depress the blood pressure of hypertensive rats (conventional antihypertensive drugs) [2]: 28.8±7.95 mmHg

Compound: O=C(OC[C@H]1O[C@@H](OC(=O)c2cc(O)c(O)c(O)c2)[C@H](OC(=O)c2cc(O)c(O)c(O)c2)[C@@H](OC(=O)c2cc(O)c(O)c(O)c2)[C@@H]1OC(=O)c1cc(O)c(O)c(O)c1)c1cc(O)c(O)c(O)c1 [1,2,3,4,6-penta-O-galloyl-D-glucose, 1,2,3,4,6-penta-O-galloyl-β-D-glucose]
- Inhibition (%), Norepinephrine [1]: 70.6 ± 10.7%
- Depression of blood pressure, WKY (normal rats (WKY); 1 mg/kg): 2.62 ± 2.33 mmHg
- Depression of blood pressure, WKY (normal rats (WKY); 5 mg/kg): 5.74 ± 2.41 mmHg
- LD50 [4]: > 50 mg/kg
- Plasma NE (norepinephrine; 1 mg/kg): 1.94 ± 0.19 pmol/mL
- Plasma NE (norepinephrine; 5 mg/kg): 1.23 ± 0.21 pmol/mL
- Depression of blood pressure, SHR ([2]; 1 mg/kg): 13.28 ± 6.22 mmHg
- Depression of blood pressure, SHR ([2]; 5 mg/kg): 29.57 ± 13.38 mmHg
- Inhibition (%), Octopamine [3]: 72.1 ± 14.8%

Compound: O=C(O[C@@H]1O[C@@H]2COC(=O)c3cc(O)c(O)c(O)c3-c3c(cc(O)c(O)c3O)C(=O)O[C@H]([C@H]1O)[C@@H]2O)c1cc(O)c(O)c(O)c1 [Corilagin, corilagin]
- Inhibition (%), Norepinephrine [1]: 83.4 ± 7.3%
- Depression of blood pressure, WKY (normal rats (WKY); 1 mg/kg): 3.85 ± 2.64 mmHg
- Depression of blood pressure, WKY (normal rats (WKY); 5 mg/kg): 10.85 ± 4.89 mmHg
- LD50 [4]: > 100 mg/kg
- Plasma NE (norepinephrine; 0.5 mg/kg): 2.19 ± 0.22 pmol/mL
- Plasma NE (norepinephrine; 1 mg/kg): 1.55 ± 0.19 pmol/mL
- Depression of blood pressure, SHR ([2]; 1 mg/kg): 17.85 ± 3.38 mmHg
- Depression of blood pressure, SHR ([2]; 5 mg/kg): 26.57 ± 7.92 mmHg
- Inhibition (%), Octopamine [3]: 65.5 ± 27.5%

Compound: COc1cc2nc(N3CCN(C(=O)c4ccco4)CC3)nc(N)c2cc1OC [prazosin, reference compound]
- depress the blood pressure of hypertensive rats (conventional antihypertensive drugs) [2]: 31.4±7.17 mmHg

Compound: COC(=O)C1=C(C)NC(C)=C(C(=O)OC)C1c1ccccc1[N+](=O)[O-] [nifedipine, reference compound]
- depress the blood pressure of hypertensive rats (conventional antihypertensive drugs) [2]: 10.8±2.78 mmHg
